Reference: patent US9643930B2, “Substituted indazole derivatives as in vitro MAO-B inhibitors” (“NTZ LAB” LTD., priority 2013, dated 2017)
Like-named read-outs stand apart in the source and are kept apart here.

How the values were obtained:
human MAO-B [1] = biological target: T1, human MAO-B (Homo sapiens, UniProt P27338); test: MAO-B reactivation experiment (time-dependent inhibition, reversibility); details: compound at IC80; p-tyramine raised from 10 μM to 1.0 mM; monitored 5 hours
T1 sequence (P27338 1-520): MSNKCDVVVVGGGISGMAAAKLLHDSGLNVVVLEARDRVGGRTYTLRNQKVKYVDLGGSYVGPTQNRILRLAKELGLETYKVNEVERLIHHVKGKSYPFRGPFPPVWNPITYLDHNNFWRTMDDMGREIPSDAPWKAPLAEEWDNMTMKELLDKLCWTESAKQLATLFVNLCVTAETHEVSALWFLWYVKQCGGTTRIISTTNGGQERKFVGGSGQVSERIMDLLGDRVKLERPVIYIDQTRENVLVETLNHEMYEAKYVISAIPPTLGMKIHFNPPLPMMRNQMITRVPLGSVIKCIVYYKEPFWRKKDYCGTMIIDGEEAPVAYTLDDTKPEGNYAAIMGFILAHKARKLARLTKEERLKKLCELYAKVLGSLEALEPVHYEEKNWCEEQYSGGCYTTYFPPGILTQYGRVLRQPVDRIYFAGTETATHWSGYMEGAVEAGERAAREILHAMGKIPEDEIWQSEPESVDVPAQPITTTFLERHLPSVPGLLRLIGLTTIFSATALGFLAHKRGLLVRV

rat MAO-A = biological target: T2, rat MAO-A (Rattus norvegicus, UniProt P21396); test: Rat MAO-A assay (Amplex Red fluorescence, rat liver mitochondria pre-treated with deprenyl); assay type: biochemical; details: for inhibition at 10 µM: read-out: rat MAO-A (rat liver mitochondria) % inhibition at 10 μM
T2 construct: from tissue; host or cells: rat liver mitochondria (male Sprague-Dawley rats)
T2 sequence (P21396 1-526): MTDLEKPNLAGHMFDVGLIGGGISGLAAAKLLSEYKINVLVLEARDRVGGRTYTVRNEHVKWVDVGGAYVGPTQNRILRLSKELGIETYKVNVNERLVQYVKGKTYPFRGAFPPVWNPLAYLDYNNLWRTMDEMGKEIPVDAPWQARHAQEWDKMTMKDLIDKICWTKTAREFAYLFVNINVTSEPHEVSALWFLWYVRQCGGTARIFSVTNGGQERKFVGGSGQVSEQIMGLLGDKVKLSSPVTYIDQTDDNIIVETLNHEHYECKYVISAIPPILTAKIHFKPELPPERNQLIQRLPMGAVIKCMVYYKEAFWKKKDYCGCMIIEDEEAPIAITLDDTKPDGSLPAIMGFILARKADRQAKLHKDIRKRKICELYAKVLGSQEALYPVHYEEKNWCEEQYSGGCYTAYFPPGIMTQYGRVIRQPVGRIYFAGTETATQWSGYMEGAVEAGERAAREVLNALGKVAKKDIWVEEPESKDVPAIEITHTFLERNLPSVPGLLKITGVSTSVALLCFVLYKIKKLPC

rat MAO-B = biological target: T3, rat MAO-B (Rattus norvegicus, UniProt P19643); test: Rat MAO-B assay (Amplex Red fluorescence, rat liver mitochondria pre-treated with clorgyline 30 nM); assay type: biochemical; details: rat liver mitochondria pre-treated with clorgyline 30 nM; read-out: rat MAO-B (rat liver mitochondria) IC50
T3 construct: from tissue; host or cells: rat liver mitochondria (male Sprague-Dawley rats)
T3 sequence (P19643 1-520): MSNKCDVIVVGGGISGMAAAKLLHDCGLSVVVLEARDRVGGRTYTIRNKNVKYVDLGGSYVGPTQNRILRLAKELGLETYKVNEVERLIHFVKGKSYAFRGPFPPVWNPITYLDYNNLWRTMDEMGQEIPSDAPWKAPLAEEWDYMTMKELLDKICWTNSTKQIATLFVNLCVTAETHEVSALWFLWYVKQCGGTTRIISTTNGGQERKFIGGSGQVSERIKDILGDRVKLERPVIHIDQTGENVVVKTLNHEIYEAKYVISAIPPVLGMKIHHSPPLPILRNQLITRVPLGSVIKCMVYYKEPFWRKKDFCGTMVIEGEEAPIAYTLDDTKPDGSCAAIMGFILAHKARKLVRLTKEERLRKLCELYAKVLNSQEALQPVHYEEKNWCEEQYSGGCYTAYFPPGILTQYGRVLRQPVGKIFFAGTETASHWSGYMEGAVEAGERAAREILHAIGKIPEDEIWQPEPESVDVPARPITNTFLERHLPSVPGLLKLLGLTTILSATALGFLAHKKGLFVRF

human MAO-A = biological target: T4, human MAO-A (Homo sapiens, UniProt P21397); test: Human MAO-A assay (recombinant enzyme, Amplex Red fluorescence); details: for inhibition at 10 µM: read-out: human MAO-A % inhibition at 10 μM; for IC50: read-out: human MAO-A IC50, recombinant human enzyme, p-tyramine 150 μM
T4 sequence (P21397 1-527): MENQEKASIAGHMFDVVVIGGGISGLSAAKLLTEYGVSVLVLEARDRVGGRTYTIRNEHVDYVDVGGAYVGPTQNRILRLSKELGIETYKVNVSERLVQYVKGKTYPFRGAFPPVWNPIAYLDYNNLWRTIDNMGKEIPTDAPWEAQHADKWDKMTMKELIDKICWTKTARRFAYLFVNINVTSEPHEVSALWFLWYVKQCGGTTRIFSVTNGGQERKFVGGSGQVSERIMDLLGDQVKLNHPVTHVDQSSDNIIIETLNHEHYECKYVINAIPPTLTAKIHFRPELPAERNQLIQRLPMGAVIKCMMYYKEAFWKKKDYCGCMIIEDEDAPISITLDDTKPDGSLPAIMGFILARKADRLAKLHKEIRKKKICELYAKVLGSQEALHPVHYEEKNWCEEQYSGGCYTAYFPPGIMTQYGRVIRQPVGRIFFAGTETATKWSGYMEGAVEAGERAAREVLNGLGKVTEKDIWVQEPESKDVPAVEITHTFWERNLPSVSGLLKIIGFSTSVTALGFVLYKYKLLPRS

human MAO-B [2] = biological target: T1, human MAO-B; test: Human MAO-B assay (recombinant enzyme, Amplex Red fluorescence); assay type: biochemical; parameters: purchased Sigma-Aldrich M7441; host or cells: baculovirus-infected insect cells (microsomal product); details: p-tyramine 150 μM
[3] = Solubility in organic solvents and in water (physicochemical properties, Table 1); details: for solubility: water, aqueous buffer
[4] = Storage stability (physicochemical properties, Table 1); details: specified storage temperature (room temperature)
human MAO-B [5] = biological target: T1, human MAO-B; test: Assay for mode of MAO-B inhibition (substrate-dependent kinetics, Lineweaver-Burk plots); assay type: biochemical; parameters: purchased Sigma-Aldrich M7441; host or cells: baculovirus-infected insect cells (microsomal product); details: p-tyramine 0.05-[…]; inhibitor 0.1-10 nM; n=2
[6] = rat liver mitochondria, substrate p-tyramine, read-out: rat MAO-A (rat liver mitochondria) IC50

IC50 (rat MAO-A; [6]) [µM]	inhibition at 10 µM (rat MAO-A; rat liver mitochondria) [%]	IC50 (rat MAO-B) [µM]	melting point [°C]	inhibition at 10 µM (human MAO-A) [%]	IC50 (human MAO-A) [µM]	IC50 (human MAO-B [2]) [µM]	SMILES	reversibility of MAO-B inhibition (enzyme reactivation after raising substrate) (human MAO-B [1])	IC50 (rat MAO-A) [µM]	Solubility in water ([3]; hot water)	Solubilty inorganic solvents ([3]; in DMSO, DMF, MeOH, EtOH, i-PrOH, n-BuOH, t-BuOH, acetonitrile (Soluble))	Solubilty inorganic solvents ([3]; in petroleum ether, Et2O and n-hexane (Insoluble))	solubility ([3]; at 22.5° C., pH 7.4) [µg/mL]	solubility ([3]; at 90° C., pH 7.4, pH 1.0) [µg/mL]	Stability [4]	mode of MAO-B inhibition (Lineweaver-Burk plots) (human MAO-B [5])
–	–	–	–	–	–	–	C[C@H](NCc1ccc(OCc2cccc(F)c2)cc1)C(N)=O [safinamide, reference compound]	The same result was observed	–	–	–	–	–	–	–	–
> 10	24	0.0431 ± 0.0042	279.6 to 281.6	62	8.79 ± 0.2	0.00436 ± 8e-05	COc1cc(NC(=O)c2ccc3[nH]ncc3c2)ccc1Cl [Example 4, N-(4-chloro-3-methoxy)-1H-indazole-5-carboxamide]	–	–	–	–	–	–	–	–	–
> 10	43	0.385 ± 0.009	306.6 to 307.3	81	3 ± 0.122	0.0375 ± 0.0073	O=C(Nc1ccc(Cl)c(O)c1)c1ccc2[nH]ncc2c1 [Example 6, N-(4-chloro-3-hydroxyphenyl)-1H-indazole-5-carboxamide]	–	–	–	–	–	–	–	–	–

SMILES	IC50 (rat MAO-A; [6]) [µM]	inhibition at 10 µM (rat MAO-A; rat liver mitochondria) [%]	IC50 (rat MAO-B) [µM]	melting point [°C]	inhibition at 10 µM (human MAO-A) [%]	IC50 (human MAO-A) [µM]	IC50 (human MAO-B [2]) [µM]	reversibility of MAO-B inhibition (enzyme reactivation after raising substrate) (human MAO-B [1])	IC50 (rat MAO-A) [µM]	Solubility in water ([3]; hot water)	Solubilty inorganic solvents ([3]; in DMSO, DMF, MeOH, EtOH, i-PrOH, n-BuOH, t-BuOH, acetonitrile (Soluble))	Solubilty inorganic solvents ([3]; in petroleum ether, Et2O and n-hexane (Insoluble))	solubility ([3]; at 22.5° C., pH 7.4) [µg/mL]	solubility ([3]; at 90° C., pH 7.4, pH 1.0) [µg/mL]	Stability [4]	mode of MAO-B inhibition (Lineweaver-Burk plots) (human MAO-B [5])
Cn1ncc2cc(C(=O)Nc3ccc(Cl)c(Cl)c3)ccc21 [Example 13]	–	42	0.00132 ± 9e-05	–	37	–	–	reversible MAO-B inhibitors	> 10	Very slightly soluble in hot water	Soluble (0.01-0.03 mL per 1.0 mg) in DMSO, DMF,	Insoluble (>10 mL per 1.0 mg) in petroleum ether,	< 0.01	< 0.035	Stable under specified storage temperature (room	linear and intersected at the y-axis with the plot for the uninhibited enzyme
